± gives the standard deviation of the averaged measurements.
Key:
Assay in all cases: normalised growth rate inhibition (GR value) relative to DMSO control (GR (1 = untreated growth, 0 = cytostasis, <0 = cytotoxic)); higher = less growth inhibition
Conditions in all cases: 72 h
BT20 = tested on: BT20
Method: (§1)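 Breast cancer cell lines (BT-20, Hs 578T, MCF 10A, MCF7, MDA-MB-231, SK-BR-3) were plated in 384-well plates and treated 24 h later with drugs at six concentrations (0.04-10 µM). Viable cells were counted by Hoechst/dead-cell-stain imaging at 0 and 72 h. Counts were normalised to DMSO controls on the same plate to give the relative cell count and the growth-rate inhibition (GR) value; technical plate triplicates were averaged for each biological replicate.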

HS578T = tested on: HS578T
Method: as §1

MCF10A = tested on: MCF10A
Method: as §1

MCF7 = tested on: MCF7
Method: as §1

MDAMB231 = tested on: MDAMB231
Method: as §1

SKBR3 = tested on: SKBR3
Method: as §1

SMILES	normalised growth rate inhibition (BT20; 0.04 µM)	normalised growth rate inhibition (BT20; 0.12 µM)	normalised growth rate inhibition (BT20; 0.37 µM)	normalised growth rate inhibition (BT20; 1.11 µM)	normalised growth rate inhibition (BT20; 3.33 µM)	normalised growth rate inhibition (BT20; 10 µM)	normalised growth rate inhibition (HS578T; 0.04 µM)	normalised growth rate inhibition (HS578T; 0.12 µM)	normalised growth rate inhibition (HS578T; 0.37 µM)	normalised growth rate inhibition (HS578T; 1.11 µM)	normalised growth rate inhibition (HS578T; 3.33 µM)	normalised growth rate inhibition (HS578T; 10 µM)	normalised growth rate inhibition (MCF10A; 0.04 µM)	normalised growth rate inhibition (MCF10A; 0.12 µM)	normalised growth rate inhibition (MCF10A; 0.37 µM)	normalised growth rate inhibition (MCF10A; 1.11 µM)	normalised growth rate inhibition (MCF10A; 3.33 µM)	normalised growth rate inhibition (MCF10A; 10 µM)	normalised growth rate inhibition (MCF7; 0.04 µM)	normalised growth rate inhibition (MCF7; 0.12 µM)	normalised growth rate inhibition (MCF7; 0.37 µM)	normalised growth rate inhibition (MCF7; 1.11 µM)	normalised growth rate inhibition (MCF7; 3.33 µM)	normalised growth rate inhibition (MCF7; 10 µM)	normalised growth rate inhibition (MDAMB231; 0.04 µM)	normalised growth rate inhibition (MDAMB231; 0.12 µM)	normalised growth rate inhibition (MDAMB231; 0.37 µM)	normalised growth rate inhibition (MDAMB231; 1.11 µM)	normalised growth rate inhibition (MDAMB231; 3.33 µM)	normalised growth rate inhibition (MDAMB231; 10 µM)	normalised growth rate inhibition (SKBR3; 0.04 µM)	normalised growth rate inhibition (SKBR3; 0.12 µM)	normalised growth rate inhibition (SKBR3; 0.37 µM)	normalised growth rate inhibition (SKBR3; 1.11 µM)	normalised growth rate inhibition (SKBR3; 3.33 µM)	normalised growth rate inhibition (SKBR3; 10 µM)
NC1(c2ccc(-c3nc4ccn5c(=O)[nH]nc5c4cc3-c3ccccc3)cc2)CCC1 [MK-2206]	0.974 ± 0.087	0.902 ± 0.12	0.678 ± 0.13	0.583 ± 0.17	0.453 ± 0.2	0.08 ± 0.29	0.8934 ± 0.0036	0.803 ± 0.035	0.577 ± 0.21	0.665 ± 0.064	0.638 ± 0.053	0.458 ± 0.29	0.99 ± 0.038	0.972 ± 0.036	0.705 ± 0.22	0.892 ± 0.067	0.833 ± 0.082	0.429 ± 0.09	0.616 ± 0.12	0.502 ± 0.086	0.278 ± 0.096	0.291 ± 0.12	0.176 ± 0.093	-0.104 ± 0.14	0.968 ± 0.039	0.904 ± 0.039	0.821 ± 0.05	0.806 ± 0.061	0.757 ± 0.051	0.391 ± 0.35	0.761 ± 0.12	0.603 ± 0.084	0.484 ± 0.06	0.429 ± 0.048	0.283 ± 0.059	-0.0652 ± 0.015
O=c1cc(N2CCOCC2)oc2c(-c3cccc4c3sc3ccccc34)cccc12 [NU-7441]	1.06 ± 0.025	1.02 ± 0.044	0.998 ± 0.035	0.958 ± 0.049	0.853 ± 0.098	0.263 ± 0.17	0.974 ± 0.01	0.9337 ± 0.0078	0.911 ± 0.022	0.789 ± 0.037	0.612 ± 0.02	0.144 ± 0.094	1.022 ± 0.0064	1.001 ± 0.0035	0.9817 ± 0.005	0.957 ± 0.015	0.894 ± 0.034	0.357 ± 0.3	1 ± 0.055	0.955 ± 0.024	0.937 ± 0.053	0.892 ± 0.1	0.747 ± 0.11	0.241 ± 0.28	1.02 ± 0.043	0.955 ± 0.046	0.892 ± 0.085	0.843 ± 0.075	0.579 ± 0.11	0.147 ± 0.16	1.04 ± 0.036	0.957 ± 0.035	0.868 ± 0.061	0.714 ± 0.15	0.644 ± 0.082	0.199 ± 0.077
Cn1c(=O)n(-c2ccc(C(C)(C)C#N)cc2)c2c3cc(-c4cnc5ccccc5c4)ccc3ncc21 [NVP-BEZ235]	0.254 ± 0.1	0.13 ± 0.12	0.0662 ± 0.092	0.061 ± 0.042	0.055 ± 0.039	0.103 ± 0.053	0.261 ± 0.067	0.197 ± 0.078	0.109 ± 0.087	0.132 ± 0.11	0.115 ± 0.052	0.128 ± 0.044	0.393 ± 0.24	0.269 ± 0.12	0.171 ± 0.038	0.164 ± 0.048	0.168 ± 0.052	0.202 ± 0.03	0.166 ± 0.15	0.122 ± 0.16	0.0651 ± 0.16	0.0257 ± 0.12	0.034 ± 0.1	0.068 ± 0.071	0.397 ± 0.2	0.301 ± 0.19	0.196 ± 0.2	0.216 ± 0.15	0.223 ± 0.11	0.266 ± 0.095	0.0857 ± 0.065	0.0449 ± 0.11	-0.0406 ± 0.12	-0.04 ± 0.11	-0.035 ± 0.12	0.0305 ± 0.11
COc1cc(N2CCC(N3CCN(C)CC3)CC2)ccc1Nc1ncc(Cl)c(Nc2ccccc2S(=O)(=O)C(C)C)n1 [NVP-TAE684]	1.04 ± 0.012	0.776 ± 0.2	0.972 ± 0.088	0.829 ± 0.13	0.447 ± 0.3	0.133 ± 0.28	0.885 ± 0.041	0.61 ± 0.098	0.609 ± 0.073	0.351 ± 0.11	0.111 ± 0.042	-0.201 ± 0.15	0.889 ± 0.06	0.754 ± 0.19	0.647 ± 0.14	0.555 ± 0.12	0.429 ± 0.14	0.123 ± 0.1	0.553 ± 0.22	0.133 ± 0.13	-0.0107 ± 0.12	-0.108 ± 0.053	-0.129 ± 0.021	-0.198 ± 0.18	0.908 ± 0.035	0.737 ± 0.11	0.694 ± 0.089	0.389 ± 0.14	0.117 ± 0.14	-0.228 ± 0.21	1.08 ± 0.047	0.782 ± 0.2	0.928 ± 0.069	0.691 ± 0.16	0.197 ± 0.2	-0.232 ± 0.068
Oc1cccc(-c2nc(N3CCOCC3)c3oc4ncccc4c3n2)c1 [PI-103]	0.949 ± 0.084	0.723 ± 0.26	0.357 ± 0.32	0.0983 ± 0.17	-0.0552 ± 0.017	-0.115 ± 0.034	0.676 ± 0.047	0.397 ± 0.075	0.249 ± 0.13	0.174 ± 0.16	0.148 ± 0.17	0.0951 ± 0.13	0.96 ± 0.066	0.76 ± 0.22	0.427 ± 0.24	0.196 ± 0.067	0.125 ± 0.032	0.0826 ± 0.033	0.71 ± 0.14	0.379 ± 0.16	0.0687 ± 0.081	-0.0473 ± 0.051	-0.0779 ± 0.063	-0.153 ± 0.1	0.772 ± 0.075	0.637 ± 0.1	0.42 ± 0.25	0.371 ± 0.12	0.291 ± 0.18	0.0948 ± 0.18	0.9 ± 0.045	0.579 ± 0.1	0.221 ± 0.052	-0.00817 ± 0.15	-0.0811 ± 0.2	-0.137 ± 0.17
CCCS(=O)(=O)Nc1ccc(F)c(C(=O)c2c[nH]c3ncc(Cl)cc23)c1F [PLX-4720]	1.01 ± 0.032	0.988 ± 0.027	0.959 ± 0.051	0.882 ± 0.16	0.685 ± 0.1	0.409 ± 0.05	1.03 ± 0.033	1.09 ± 0.044	1.12 ± 0.079	1.12 ± 0.11	1.04 ± 0.086	0.781 ± 0.092	0.998 ± 0.019	0.99 ± 0.039	0.982 ± 0.054	1 ± 0.068	1 ± 0.066	0.896 ± 0.056	1.04 ± 0.078	0.944 ± 0.028	1.02 ± 0.049	0.991 ± 0.02	0.851 ± 0.097	0.5 ± 0.16	0.989 ± 0.06	1.01 ± 0.054	1 ± 0.032	0.929 ± 0.041	0.822 ± 0.073	0.63 ± 0.21	0.994 ± 0.015	0.999 ± 0.026	1.04 ± 0.15	1.06 ± 0.06	0.61 ± 0.1	0.254 ± 0.26
C=CC(=O)Nc1cc(-n2c(=O)ccc3cnc4ccc(-c5cn[nH]c5)cc4c32)ccc1C [QL-X-138]	0.727 ± 0.052	0.726 ± 0.046	0.631 ± 0.11	0.535 ± 0.17	0.381 ± 0.18	-0.222 ± 0.053	0.841 ± 0.034	0.76 ± 0.066	0.639 ± 0.024	0.501 ± 0.018	0.379 ± 0.061	-0.0527 ± 0.082	1.01 ± 0.063	0.981 ± 0.074	0.887 ± 0.15	0.791 ± 0.19	0.505 ± 0.29	-0.112 ± 0.031	0.496 ± 0.22	0.41 ± 0.2	0.31 ± 0.098	0.205 ± 0.094	0.145 ± 0.061	-0.0977 ± 0.021	0.824 ± 0.13	0.834 ± 0.062	0.768 ± 0.059	0.672 ± 0.12	0.48 ± 0.13	-0.135 ± 0.11	0.463 ± 0.16	0.413 ± 0.11	0.233 ± 0.13	0.163 ± 0.09	0.0588 ± 0.1	-0.231 ± 0.21
